According to ChEMBL document CHEMBL1921670, “Discovery and optimization of indole and 7-azaindoles as Rho kinase (ROCK) inhibitors (part-II)” (Bioorg Med Chem Lett, 2011):

Tests used:
[1] = biological target: Rho-associated protein kinase 2 (Homo sapiens, UniProt O75116); assay: Inhibition of ROCK2
[2] = Inhibition of PKA
[3] = biological target: Rho-associated protein kinase 1 (Homo sapiens, UniProt Q13464); assay: Inhibition of ROCK1
CYP3A4 = CYP3A4 (Homo sapiens, UniProt P08684); assay: Inhibition of CYP3A4 at 10 uM; format: ADME
CYP1A2 = biological target: T1, CYP1A2 (Homo sapiens, UniProt P05177); assay: Inhibition of CYP1A2 at 10 uM; format: ADME
T1 sequence (P05177 whole entry): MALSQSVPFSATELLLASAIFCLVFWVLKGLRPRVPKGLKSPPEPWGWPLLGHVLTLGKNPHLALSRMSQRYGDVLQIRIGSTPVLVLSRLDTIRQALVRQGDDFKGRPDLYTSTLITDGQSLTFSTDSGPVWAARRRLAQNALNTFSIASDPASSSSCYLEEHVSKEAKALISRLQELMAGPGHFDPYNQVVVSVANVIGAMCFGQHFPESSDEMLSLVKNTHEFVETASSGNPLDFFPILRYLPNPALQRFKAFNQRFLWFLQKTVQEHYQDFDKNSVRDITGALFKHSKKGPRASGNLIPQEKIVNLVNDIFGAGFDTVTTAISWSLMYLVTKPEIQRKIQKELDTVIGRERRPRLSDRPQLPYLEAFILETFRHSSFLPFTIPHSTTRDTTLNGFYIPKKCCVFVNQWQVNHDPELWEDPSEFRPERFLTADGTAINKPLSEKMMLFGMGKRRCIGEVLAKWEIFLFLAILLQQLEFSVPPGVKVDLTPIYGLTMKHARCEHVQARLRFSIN

[4] = Half life in human liver microsomes; format: ADME, Microsome
CYP2C9 = CYP2C9 (Homo sapiens, UniProt P11712); assay: Inhibition of CYP2C9 at 10 uM; format: ADME
CYP2D6 = CYP2D6 (Homo sapiens, UniProt P10635); assay: Inhibition of CYP2D6 at 10 uM; format: ADME
[5] = Half life in rat at 1 mg/kg, iv or 2 mg/kg, po; format: ADME, organism-based; details: in vivo
[6] = Clearance in rat at 1 mg/kg, iv or 2 mg/kg, po; format: ADME, organism-based; details: in vivo
[7] = Oral bioavailability in rat at 2 mg/kg; format: ADME, organism-based; details: in vivo
[8] = Volume of distribution at steady state in rat at 1 mg/kg, iv or 2 mg/kg, po; format: ADME, organism-based; details: in vivo, read-out: Vdss
[9] = AUC in rat at 1 mg/kg, iv; format: ADME, organism-based; parameters: dose 1 mg/kg, route intravenous; details: plasma
[10] = Inhibition of myosin light chain bisphosphorylation by cell-based assay

Chain of CYP2D6 (P10635 whole entry): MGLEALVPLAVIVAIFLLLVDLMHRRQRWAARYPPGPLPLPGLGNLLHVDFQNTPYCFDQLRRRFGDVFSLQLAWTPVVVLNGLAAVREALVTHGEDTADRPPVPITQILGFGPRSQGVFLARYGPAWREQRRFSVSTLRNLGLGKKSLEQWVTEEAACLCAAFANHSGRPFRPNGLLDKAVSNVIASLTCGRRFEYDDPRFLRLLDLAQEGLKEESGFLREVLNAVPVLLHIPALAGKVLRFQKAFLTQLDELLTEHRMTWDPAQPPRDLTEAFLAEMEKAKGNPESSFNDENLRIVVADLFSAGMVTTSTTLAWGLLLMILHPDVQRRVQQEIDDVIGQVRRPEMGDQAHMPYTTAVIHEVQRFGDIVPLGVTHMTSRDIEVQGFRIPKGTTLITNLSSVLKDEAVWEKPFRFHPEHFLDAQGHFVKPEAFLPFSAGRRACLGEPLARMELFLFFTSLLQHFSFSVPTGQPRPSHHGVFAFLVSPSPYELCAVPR
Chain of Rho-associated protein kinase 2 (O75116 whole entry): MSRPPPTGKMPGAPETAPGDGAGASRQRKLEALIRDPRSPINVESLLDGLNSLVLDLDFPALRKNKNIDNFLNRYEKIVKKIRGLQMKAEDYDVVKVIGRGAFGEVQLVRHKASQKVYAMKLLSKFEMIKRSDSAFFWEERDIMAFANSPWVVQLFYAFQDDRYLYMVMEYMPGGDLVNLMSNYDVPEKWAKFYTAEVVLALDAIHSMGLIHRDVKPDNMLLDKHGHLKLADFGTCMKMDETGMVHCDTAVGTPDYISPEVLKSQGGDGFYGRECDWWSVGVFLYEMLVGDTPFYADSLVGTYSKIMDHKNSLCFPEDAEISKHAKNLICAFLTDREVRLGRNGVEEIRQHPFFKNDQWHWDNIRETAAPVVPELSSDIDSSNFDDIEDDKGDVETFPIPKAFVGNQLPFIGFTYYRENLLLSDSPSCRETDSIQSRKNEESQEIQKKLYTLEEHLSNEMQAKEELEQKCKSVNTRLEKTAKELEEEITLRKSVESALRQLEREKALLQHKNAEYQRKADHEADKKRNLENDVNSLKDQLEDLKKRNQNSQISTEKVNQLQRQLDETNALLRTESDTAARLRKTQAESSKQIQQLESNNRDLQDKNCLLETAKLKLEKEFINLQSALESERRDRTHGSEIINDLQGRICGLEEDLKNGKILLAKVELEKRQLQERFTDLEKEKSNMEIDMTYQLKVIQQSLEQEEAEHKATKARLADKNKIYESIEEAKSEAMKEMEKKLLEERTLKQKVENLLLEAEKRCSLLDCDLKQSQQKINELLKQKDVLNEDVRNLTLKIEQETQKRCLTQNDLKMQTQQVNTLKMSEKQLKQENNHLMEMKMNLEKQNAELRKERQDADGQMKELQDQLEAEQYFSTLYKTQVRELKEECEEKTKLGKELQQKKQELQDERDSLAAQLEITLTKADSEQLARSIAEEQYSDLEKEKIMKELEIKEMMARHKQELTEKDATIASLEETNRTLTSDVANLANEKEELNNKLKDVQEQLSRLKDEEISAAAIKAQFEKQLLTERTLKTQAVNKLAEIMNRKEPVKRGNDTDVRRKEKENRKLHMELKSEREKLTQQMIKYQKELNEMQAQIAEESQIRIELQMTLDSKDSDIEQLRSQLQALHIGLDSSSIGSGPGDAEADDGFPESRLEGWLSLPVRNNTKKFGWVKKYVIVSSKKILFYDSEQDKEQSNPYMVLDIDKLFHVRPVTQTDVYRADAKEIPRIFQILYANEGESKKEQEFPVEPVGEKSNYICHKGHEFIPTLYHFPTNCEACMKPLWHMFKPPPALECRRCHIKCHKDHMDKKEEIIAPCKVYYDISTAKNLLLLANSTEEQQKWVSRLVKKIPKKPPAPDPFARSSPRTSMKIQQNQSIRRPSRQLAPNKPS
Chain of Rho-associated protein kinase 1 (Q13464 whole entry): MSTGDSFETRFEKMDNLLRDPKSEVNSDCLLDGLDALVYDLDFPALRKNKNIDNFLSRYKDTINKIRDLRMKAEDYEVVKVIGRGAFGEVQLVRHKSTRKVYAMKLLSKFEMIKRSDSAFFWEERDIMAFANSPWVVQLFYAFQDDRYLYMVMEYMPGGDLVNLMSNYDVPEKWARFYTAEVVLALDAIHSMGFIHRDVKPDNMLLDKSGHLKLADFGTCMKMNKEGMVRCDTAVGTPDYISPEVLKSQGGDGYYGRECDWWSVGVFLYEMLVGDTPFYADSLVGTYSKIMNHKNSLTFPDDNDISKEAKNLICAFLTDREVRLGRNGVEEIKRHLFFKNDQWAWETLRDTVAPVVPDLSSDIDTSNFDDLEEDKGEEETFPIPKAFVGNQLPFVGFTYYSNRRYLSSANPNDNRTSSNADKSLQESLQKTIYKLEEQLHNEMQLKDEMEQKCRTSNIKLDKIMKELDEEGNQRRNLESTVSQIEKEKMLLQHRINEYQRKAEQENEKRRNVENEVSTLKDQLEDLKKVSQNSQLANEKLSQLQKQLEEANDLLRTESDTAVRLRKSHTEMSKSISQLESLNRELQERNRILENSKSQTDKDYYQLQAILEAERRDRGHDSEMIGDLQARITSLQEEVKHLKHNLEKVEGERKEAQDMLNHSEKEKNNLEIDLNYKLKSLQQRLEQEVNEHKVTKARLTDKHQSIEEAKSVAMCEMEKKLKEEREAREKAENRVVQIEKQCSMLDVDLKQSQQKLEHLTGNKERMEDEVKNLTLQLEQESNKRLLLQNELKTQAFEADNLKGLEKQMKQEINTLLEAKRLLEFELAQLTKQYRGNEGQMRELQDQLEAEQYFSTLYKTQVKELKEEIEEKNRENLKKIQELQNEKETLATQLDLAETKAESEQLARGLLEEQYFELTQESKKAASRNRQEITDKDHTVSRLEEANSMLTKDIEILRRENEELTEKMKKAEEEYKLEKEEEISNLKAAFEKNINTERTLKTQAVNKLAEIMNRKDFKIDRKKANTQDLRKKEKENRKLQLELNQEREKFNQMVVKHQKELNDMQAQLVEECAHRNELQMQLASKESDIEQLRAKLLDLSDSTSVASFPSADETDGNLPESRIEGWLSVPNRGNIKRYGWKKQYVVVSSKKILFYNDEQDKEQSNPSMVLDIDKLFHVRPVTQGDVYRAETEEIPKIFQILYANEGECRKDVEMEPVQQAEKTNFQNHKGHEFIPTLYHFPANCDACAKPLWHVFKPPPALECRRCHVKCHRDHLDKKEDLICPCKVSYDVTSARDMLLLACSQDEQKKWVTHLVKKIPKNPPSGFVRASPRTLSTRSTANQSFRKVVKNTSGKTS
Chain of CYP3A4 (P08684 whole entry): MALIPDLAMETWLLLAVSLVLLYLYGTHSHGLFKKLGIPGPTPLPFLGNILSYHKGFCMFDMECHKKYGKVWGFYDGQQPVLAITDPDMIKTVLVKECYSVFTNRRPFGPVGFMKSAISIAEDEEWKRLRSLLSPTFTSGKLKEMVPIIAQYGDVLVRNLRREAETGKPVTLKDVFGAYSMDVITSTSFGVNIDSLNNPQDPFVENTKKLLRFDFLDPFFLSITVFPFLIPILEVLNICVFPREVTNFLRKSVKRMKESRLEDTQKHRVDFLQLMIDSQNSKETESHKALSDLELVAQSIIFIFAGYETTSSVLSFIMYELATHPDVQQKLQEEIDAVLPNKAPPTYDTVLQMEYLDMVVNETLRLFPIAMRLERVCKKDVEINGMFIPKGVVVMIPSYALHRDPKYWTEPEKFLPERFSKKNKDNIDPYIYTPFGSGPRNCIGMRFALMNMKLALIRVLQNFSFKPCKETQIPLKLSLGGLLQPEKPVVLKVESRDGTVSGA
Chain of CYP2C9 (P11712 whole entry): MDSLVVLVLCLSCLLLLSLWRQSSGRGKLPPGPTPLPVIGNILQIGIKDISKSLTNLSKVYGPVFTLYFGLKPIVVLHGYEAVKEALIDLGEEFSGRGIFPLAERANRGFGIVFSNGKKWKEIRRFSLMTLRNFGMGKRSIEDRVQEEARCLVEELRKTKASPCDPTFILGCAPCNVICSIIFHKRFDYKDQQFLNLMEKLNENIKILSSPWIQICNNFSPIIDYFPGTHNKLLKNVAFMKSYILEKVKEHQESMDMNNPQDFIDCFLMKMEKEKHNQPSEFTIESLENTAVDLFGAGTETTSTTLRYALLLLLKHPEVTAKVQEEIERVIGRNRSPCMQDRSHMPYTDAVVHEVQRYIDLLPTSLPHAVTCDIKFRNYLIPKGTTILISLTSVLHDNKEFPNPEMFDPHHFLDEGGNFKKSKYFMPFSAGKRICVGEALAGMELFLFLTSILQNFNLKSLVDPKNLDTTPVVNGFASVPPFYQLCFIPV

IC50 [1] [nM] | IC50 [2] [nM] | IC50 [3] [nM] | inhibition at 10 µM (CYP3A4) [%] | inhibition at 10 µM (CYP1A2) [%] | half-life [4] [min] | inhibition at 10 µM (CYP2C9) [%] | inhibition at 10 µM (CYP2D6) [%] | IC50 [10] [nM] | SMILES | half-life [5] [min] | clearance [6] [mL/min/kg] | bioavailability [7] [%] | Vd [8] [L/kg] | AUC [9] [µM·h]
6 | > 20000 | 30 | 56 | -5 | 9 | 91 | 25 |  | COc1cccc(CN(C(=O)c2c[nH]c3nc(-c4cn[nH]c4)ccc23)C2CC2)c1 |  |  |  |  | 
1900 | 3700 | 6600 |  |  |  |  |  |  | COc1cccc(CN(CC[N+]2(C)CCCC2)C(=O)c2cc3ccc(-c4cn[nH]c4)nc3n2C)c1 |  |  |  |  | 
2300 | > 20000 | 6900 |  |  |  |  |  |  | COc1cccc(CN(C)C(=O)c2cc3ccc(-c4cn[nH]c4)cc3n2CCN(C)C)c1 |  |  |  |  | 
3 | 18000 | 40 | 86 | 46 | 8 | 86 | 70 | 130 | COc1cccc(CNC(=O)c2[nH]c3cc(-c4cn[nH]c4)ccc3c2CN2CCOCC2)c1 | 84 | 32 | 0 | 2 | 1.2
62 | 3700 | 260 |  |  |  |  |  |  | COc1cccc(CN(CCCN2CCN(C)CC2)C(=O)c2c[nH]c3nc(-c4cn[nH]c4)ccc23)c1 |  |  |  |  | 
11 | 1640 | 62 | 59 | -2 | 49 | 65 | 78 | 206 | COc1cccc(CN(CCN2CCCC2)C(=O)c2cc3ccc(-c4cn[nH]c4)cc3[nH]2)c1 |  |  |  |  | 
18 | > 20000 | 121 | 43 | 12 | 21 | 26 | 52 |  | COc1cccc(CN(CCN2CCCC2)C(=O)c2cc3ccc(-c4cn[nH]c4)nc3[nH]2)c1 |  |  |  |  | 
< 1 | 87 | < 1 | 87 | 23 | 9 | 93 | 53 | 4 | COc1cccc(CNC(=O)c2cn(C)c3cc(-c4cn[nH]c4)ccc23)c1 |  |  |  |  | 
< 1 | 1300 | 6 | 75 | 62 | 1 | 75 | 86 | 40 | COc1cccc(CNC(=O)c2[nH]c3cc(-c4cn[nH]c4)ccc3c2CN2CCN(C)CC2)c1 |  |  |  |  | 
8 | 911 | 39 | 34 | -15 | 1 | -26 | 60 |  | COc1cccc(CNC(=O)c2[nH]c3nc(-c4cn[nH]c4)ccc3c2CN2CCN(C)CC2)c1 |  |  |  |  | 
16 | 6100 | 91 | 46 | 7 | 4 | 9 | 28 |  | COc1cccc(CNC(=O)c2[nH]c3nc(-c4cn[nH]c4)ccc3c2CN2CCOCC2)c1 |  |  |  |  | 
9 | 1500 | 34 | 19 | 18 | 68 | 27 | 48 |  | COc1cccc(CNC(=O)c2[nH]c3cc(-c4cn[nH]c4)ccc3c2CN(C)C)c1 |  |  |  |  | 
4400 |  | > 20000 |  |  |  |  |  |  | COc1cccc(CNC(=O)c2cc3ccc(-c4cn[nH]c4)nc3n2Cc2cccc(OC)c2)c1 |  |  |  |  | 
220 | 2200 | 1000 |  |  |  |  |  |  | COc1cccc(CN(CCN2CCCC2)C(=O)c2cc3ccc(-c4cn[nH]c4)nc3n2C)c1 |  |  |  |  | 
2 | 4300 | 19 | 38 | 70 | 13 | 94 | 50 |  | COc1cccc(CN(C)C(=O)c2c[nH]c3cc(-c4cn[nH]c4)ccc23)c1 |  |  |  |  | 
150 | 5000 | 280 |  |  |  |  |  |  | COc1cccc(CNC(=O)c2cc3ccc(-c4cn[nH]c4)nc3n2CC2CC2)c1 |  |  |  |  | 

IC50 [1] [nM] | IC50 [2] [nM] | IC50 [3] [nM] | inhibition at 10 µM (CYP3A4) [%] | inhibition at 10 µM (CYP1A2) [%] | half-life [4] [min] | inhibition at 10 µM (CYP2C9) [%] | inhibition at 10 µM (CYP2D6) [%] | IC50 [10] [nM] | SMILES | half-life [5] [min] | clearance [6] [mL/min/kg] | bioavailability [7] [%] | Vd [8] [L/kg] | AUC [9] [µM·h]
4 | 570 | 27 | 27 | 32 | 24 | 83 | 52 | 25 | COc1cccc(CN(C)C(=O)c2cc3ccc(-c4cn[nH]c4)nc3[nH]2)c1 |  |  |  |  | 
9 | > 20000 | 110 |  |  |  |  |  |  | COc1cccc(CN(C)C(=O)c2cn(CCN(C)C)c3cc(-c4cn[nH]c4)ccc23)c1 |  |  |  |  | 
< 1 | 385 | 8 | 51 | 41 | 50 | 53 | 81 |  | COc1cccc(CNC(=O)c2[nH]c3cc(-c4cn[nH]c4)ccc3c2CN2CCCNCC2)c1 |  |  |  |  | 
< 1 | 720 | < 1 | 68 | -2 | 13 | 77 | 23 |  | COc1cccc(CNC(=O)c2cn(C)c3nc(-c4cn[nH]c4)ccc23)c1 |  |  |  |  | 
< 1 | 680 | 3 | 70 | 23 | 4 | 93 | 58 | 17 | COc1cccc(CN(C)C(=O)c2cn(C)c3cc(-c4cn[nH]c4)ccc23)c1 |  |  |  |  | 
 | 8000 |  |  |  |  |  |  |  | COc1cccc(CNC(=O)c2c[nH]c3nc(-c4cn[nH]c4)ccc23)c1 |  |  |  |  | 
5 |  | 21 | 93 | 36 | 10 | 96 | 76 |  | COc1cccc(CNC(=O)c2cn(-c3ccccc3)c3cc(-c4cn[nH]c4)ccc23)c1 |  |  |  |  | 
1 | 2810 | 13 | 31 | 4 | 14 | 28 | 31 | 53 | COc1cccc(CN(CCCN(C)C)C(=O)c2cn(C)c3cc(-c4cn[nH]c4)ccc23)c1 |  |  |  |  | 
200 | > 20000 | 1100 |  |  |  |  |  |  | COc1cccc(CN(C)C(=O)c2cc3ccc(-c4cn[nH]c4)cc3n2C)c1 |  |  |  |  | 
1 | 2200 | 9 | 36 | 3 | 8 | 62 | 52 | 34 | COc1cccc(CN(CCN(C)C)C(=O)c2cn(C)c3cc(-c4cn[nH]c4)ccc23)c1 |  |  |  |  | 
24 | 1800 | 88 |  |  |  |  |  |  | COc1cccc(CNC(=O)c2cc3ccc(-c4cn[nH]c4)cc3n2CCCO)c1 |  |  |  |  | 
10 | 1600 | 46 |  |  |  |  |  |  | COc1cccc(CN(CCCN(C)C)C(=O)c2cc3ccc(-c4cn[nH]c4)cc3[nH]2)c1 |  |  |  |  | 
3 | 2800 | 37 | 2 | -7 | 46 | 27 | 9 | 70 | COc1cccc(CN(C)C(=O)c2cc3ccc(-c4cn[nH]c4)cc3[nH]2)c1 |  |  |  |  | 
19 | 5000 | 76 |  |  |  |  |  |  | CCN(Cc1cccc(OC)c1)C(=O)c1c[nH]c2nc(-c3cn[nH]c3)ccc12 |  |  |  |  | 
310 | > 20000 | 710 |  |  |  |  |  |  | COc1cccc(CNC(=O)c2cc3ccc(-c4cn[nH]c4)cc3n2CCN(C)C)c1 |  |  |  |  | 

SMILES | IC50 [1] [nM] | IC50 [2] [nM] | IC50 [3] [nM] | inhibition at 10 µM (CYP3A4) [%] | inhibition at 10 µM (CYP1A2) [%] | half-life [4] [min] | inhibition at 10 µM (CYP2C9) [%] | inhibition at 10 µM (CYP2D6) [%] | IC50 [10] [nM] | half-life [5] [min] | clearance [6] [mL/min/kg] | bioavailability [7] [%] | Vd [8] [L/kg] | AUC [9] [µM·h]
COc1cccc(CN(CCN(C)C)C(=O)c2cn(CCN3CCCC3)c3cc(-c4cn[nH]c4)ccc23)c1 | 2800 | > 20000 | 8900 |  |  |  |  |  |  |  |  |  |  | 
COc1cccc(CNC(=O)c2cn(CCN3CCCC3)c3nc(-c4cn[nH]c4)ccc23)c1 | 8 | > 20000 | 89 | 44 | 9 | 21 | 51 | 69 |  | 90 | 114 | 0 | 10 | 0.3
COc1cccc(CNC(=O)c2cn(CCCO)c3cc(-c4cn[nH]c4)ccc23)c1 | 1 | 900 | 3 | 63 | 71 | 21 | 87 | 32 |  |  |  |  |  | 
